This note sets out measurements from patent US20170246311A1, “PEPTIDES FOR BINDING ALTERNATIVELY ACTIVATED MACROPHAGES” (University of Washington, priority 2016, published 2017).

One series concerns M2 macrophages. The series is described as follows: Binding study of biotinylated peptides on polarized bone marrow-derived macrophages (streptavidin-FITC, flow cytometry). The series is classed as cell-based, mouse. As to conditions: for binding activity to M2 macrophages (in words): biotinylated peptide, on ice 20 min. How it is done: All animal handling protocols were approved by the University of Washington Institutional Animal Care and Use Committee. Bone marrow harvest was performed following the previously reported protocol. Briefly, femur and tibia were excised from 6-8 week-old female c57bl6/027 mice. Cuts were made on the ends of each bone, and RPMI 1640 medium was used to flush out bone marrow cells via 18G needle. The cells were cultured on petri dishes in RPMI 1640 medium supplemented with 20% donor horse serum, 1% antibiotic-antimycotic (AbAm), and 20 ng/mL M-CSF. After 7 d of culture, macrophages were activated by replacing M-CSF with 25 ng/mL IFN-γ and 100 ng/mL LPS for M1 macrophage or 25 ng/mL IL-4 for M2 macrophage. The macrophages were activated for 2 d and then scraped off the petri dishes with cell lifter for binding studies.
Peptide solutions at different concentrations for binding study were prepared by dilutions from the stock solution (10 mg/mL in dH2O) with PBS containing 1% BSA (PBSA). M1 and M2 macrophages (50,000 cells/well) were seeded on a black 96-well plate and incubated in the peptide solutions on ice for 20 min. Unbound peptides were washed off with PBSA twice. The macrophages were subsequently incubated with streptavidin-FITC for 15 min on ice to probe for the bound peptides. Excess streptavidin-FITC was washed off with PBSA twice, and the macrophages were then resuspended in PBS for analysis by MACSQuant Flow Cytometer (Miltenyi Biotec, San Diego, Calif.). Propidium iodide was added to the samples before the data acquisition to discriminate dead cells. Flow cytometry data were analyzed with FlowJo Analysis Software (Tree Star, Ashland, Oreg.). Binding study of peptides post serum incubation was similarly performed with the following additions: The peptides (5 mM stock solution in H2O) were diluted in serum to a final concentration of 0.5 mM and incubated at 37° C. in an incubator. At each time point, an aliquot of the peptides was drawn and diluted in PBS to the final concentration for the binding study. The diluted aliquot was heated at 80° C. for 30 min to inactivate serum proteins, stored in a −20° C. freezer, and thawed for use in the binding study after aliquots at all time points were collected.
All animal handling protocols were approved by the University of Washington Institutional Animal Care and Use Committee. Bone marrow-derived cells were harvested from female c57bl/6 mice as previously described. In brief, femurs and tibias of the mice were excised and flushed with RPMI 1640 medium via an 18G needle. The cells were cultured on petri dishes containing RPMI 1640 medium supplemented with 20% donor horse serum, 1% antibioticantimycotic (AbAm), and 20 ng/mL M-CSF. After 7 d in culture, the medium was replaced with an activation medium whereby M-CSF was replaced with 25 ng/mL IFN-γ and 100 ng/mL LPS for M1 activation or with 25 ng/mL IL-4 for M2 activation. For M1 activation medium, AbAm was replaced with 1% penicillin-streptomycin (Pen-Strep). After 2 d of activation, the activated macrophages were scraped off the petri dishes for binding studies.
Biotinylated peptide stock solutions were prepared in H2O at 10 mg/mL concentration and quantified for the exact concentration using Quant*Tag Biotin quantification kit. The stock solutions were diluted in PBS with 1% BSA (PBSA) to different concentrations for binding studies. Activated macrophages were seeded on a black 96-well plate (50,000 cells/well) and incubated with the peptide solutions for 20 min on ice. The cells were washed twice with PBSA and subsequently incubated with streptavidin-FITC for 15 min on ice. After two additional washes, the cells were resuspended in PBS for analysis via MACSQuant Flow Cytometer (Miltenyi Biotec, San Diego, Calif.). Propidium iodide (PI) was added before running each sample to assess for cell viability. Data analysis was processed on FlowJo Analysis Software (Tree Star, Ashland, Oreg.). […]
(Flow cytometry measures light scatter and fluorescence of single cells or particles in a stream.)

Series [1] can be described thus: Serum stability study in normal mouse serum, analysis by MALDI-TOF MS. Particulars: mouse serum.
Method: The peptide of interest (30 μL of 10 mg/mL stock solution in dH2O) was added to normal mouse serum (300 μL) and incubated at 37° C. in an incubator. At each time point, an aliquot of 40 μL was drawn and an equal volume of ACN was added to the aliquot to precipitate serum proteins. The cloudy mixture was centrifuged at 10,000 rpm for 5 min and then supernatant removed. A solution of 1:1 H2O/ACN (80 μL) was added to the pellet and sonicated for 10 min to further extract the remaining peptides. This resuspended mixture was then centrifuged, and the supernatant was pooled with the former and vacuum-dried on a Speedvac machine. The dried pellet was solubilized in H2O (50 μL) by sonication for 10 min. The mixture was then centrifuged, and the supernatant was drawn and analyzed by MALDI-TOF MS.
To evaluate serum stability of M2pep, the peptide was incubated in mouse serum, and aliquots of the serum at various time points were withdrawn for analysis of degradation patterns by MALDI-TOF MS.
Different M2pep analogs (30 μL from 10 mg/mL stock solution in H2O) were incubated in normal mouse serum (300 μL) at 37° C. in an incubator. An aliquot of the serum (40 μL) was drawn at different time intervals and precipitated with an equal volume of cold ACN. The mixture was centrifuged at 15,000 rpm for 5 min, and the supernatant was collected. A solution of H2O/ACN (1:1 v/v, 80 μL) was added to the pellet with a 10-min sonication to further extract residual peptides. The mixture was then centrifuged. The supernatant was pooled with the former and dried under vacuum on a Speedvac machine. The peptide pellet was resuspended in H2O (50 μL) with a 10-min sonication before analysis by MALDI-ToF MS.

“Also recorded” adds a separate entry of the source. Positions of bridges follow the written chain, without caps; N, C: chain ends. Non-standard residues stand in square brackets, D forms with d. Residues, ends and D or L forms follow the SMILES beside them. *: point of attachment. Biotin = O=C1N[C@H]2[C@H](CS[C@H]2CCCCC(=O)*)N1; Hyp = O=C(O)[C@@H]1C[C@@H](O)CN1

With `CC(C)[C@@H]1NC(=O)CNC(=O)[C@H](Cc2c[nH]c3ccccc23)NC(=O)[C@@H]2CCCN2C(=O)[C@H](CC(=O)O)NC(=O)CNC(=O)[C@@H](N)CSSC[C@@H](C(=O)N[C@H](CCCCN)C(=O)N[C@H](CCCCN)C(=O)N[C@H](CCCCN)C(=O)N[C@@H](CCCCNC(=O)CCCC[C@@H]2SC[C@@H]3NC(=O)N[C@@H]32)C(N)=O)NC(=O)CNC(=O)[C@H](Cc2c[nH]c3ccccc23)NC(=O)[C@H](Cc2ccc(O)cc2)NC(=O)[C@H](CCCNC(=N)N)NC1=O` [cRYW, CGDPWGVRYWGCkkk] (H-CGDPWGVRYWGC[dK][dK][dK]K(Biotin)-NH2; disulfide 1-12), the “binding activity to M2 macrophages (in words)” value (“binding activity” below) in the series on M2 macrophages is “significantly lower binding activity compared to cyclic M2pep(RY)Biotin”.
As for `CC(=O)N[C@@H](Cc1ccc(O)cc1)C(=O)N[C@@H](CCC(=O)O)C(=O)N[C@@H](CCC(N)=O)C(=O)N[C@@H](CC(=O)O)C(=O)N1CCC[C@H]1C(=O)N[C@@H](Cc1c[nH]c2ccccc12)C(=O)NCC(=O)N[C@H](C(=O)N[C@@H](CCCCN)C(=O)N[C@@H](Cc1ccc(O)cc1)C(=O)N[C@@H](Cc1c[nH]c2ccccc12)C(=O)N[C@@H](Cc1ccc(O)cc1)C(=O)NCC(=O)NCC(=O)NCC(=O)N[C@@H](CO)C(=O)N[C@H](CCCCN)C(=O)N[C@H](CCCCN)C(=O)N[C@H](CCCCN)C(=O)N[C@@H](CCCCNC(=O)CCCC[C@@H]1SC[C@@H]2NC(=O)N[C@@H]21)C(N)=O)C(C)C` [W10Y, Ac-YEQDPWGVKYWYGGGSkkk] (Ac-YEQDPWGVKYWYGGGS[dK][dK][dK]K(Biotin)-NH2), in the series on M2 macrophages, the “binding activity” value is listed as “significantly increased binding activity”. The “serum stability at the W10/W11 endolytic cleavage site” value in series [1] is reported as “did not confer protection at the W10/W11 site”.
For `CC(=O)N[C@@H](CCCNC(=N)N)C(=O)N[C@@H](Cc1ccc(O)cc1)C(=O)N[C@@H](CCC(=O)O)C(=O)N[C@@H](CCC(N)=O)C(=O)N[C@@H](CC(=O)O)C(=O)N1CCC[C@H]1C(=O)N[C@@H](Cc1c[nH]c2ccccc12)C(=O)NCC(=O)N[C@H](C(=O)N[C@@H](CCCNC(=N)N)C(=O)N[C@@H](Cc1ccc(O)cc1)C(=O)N[C@@H](Cc1c[nH]c2ccccc12)C(=O)N[C@H](Cc1ccc(O)cc1)C(=O)NCC(=O)NCC(=O)NCC(=O)N[C@@H](CO)C(=O)N[C@H](CCCCN)C(=O)N[C@H](CCCCN)C(=O)N[C@H](CCCCN)C(=O)N[C@@H](CCCCNC(=O)CCCC[C@@H]1SC[C@@H]2NC(=O)N[C@@H]21)C(N)=O)C(C)C` [R0, Ac-RYEQDPWGVRYWyGGGSkkk] (Ac-RYEQDPWGVRYW[dY]GGGS[dK][dK][dK]K(Biotin)-NH2), in the series on M2 macrophages, the “binding activity” value is reported as “did not improve binding activity any further”.
In the case of `CC(=O)N[C@@H](Cc1ccc(O)cc1)C(=O)N[C@@H](CCC(=O)O)C(=O)N[C@@H](CCC(N)=O)C(=O)N[C@@H](CC(=O)O)C(=O)N1CCC[C@H]1C(=O)N[C@@H](Cc1c[nH]c2ccccc12)C(=O)NCC(=O)N[C@H](C(=O)N[C@@H](CCCNC(=N)N)C(=O)N[C@@H](Cc1ccc(O)cc1)C(=O)N[C@@H](Cc1c[nH]c2ccccc12)C(=O)N[C@@H](Cc1ccc(O)cc1)C(=O)NCC(=O)NCC(=O)NCC(=O)N[C@@H](CO)C(=O)N[C@H](CCCCN)C(=O)N[C@H](CCCCN)C(=O)N[C@H](CCCCN)C(=O)N[C@@H](CCCCNC(=O)CCCC[C@@H]1SC[C@@H]2NC(=O)N[C@@H]21)C(N)=O)C(C)C` [AcM2pep(RY)Biotin, Ac-YEQDPWGVRYWYGGGSkkk] (Ac-YEQDPWGVRYWYGGGS[dK][dK][dK]K(Biotin)-NH2), in the series with M2 macrophages, the “binding activity” value is “did not improve the binding activity any further compared to the K9R analog; also recorded: highest affinity linear M2pep analog”. Moreover, in series [1], the “serum stability at the W10/W11 endolytic cleavage site” value is “did not improve serum stability at the W10/W11 site”.
Regarding `CC(=O)N[C@@H](Cc1ccc(O)cc1)C(=O)N[C@@H](CCC(=O)O)C(=O)N[C@@H](CCC(N)=O)C(=O)N[C@@H](CC(=O)O)C(=O)N1CCC[C@H]1C(=O)N[C@@H](Cc1c[nH]c2ccccc12)C(=O)NCC(=O)N[C@H](C(=O)N[C@@H](CCCCN)C(=O)N[C@@H](Cc1c[nH]c2ccccc12)C(=O)N[C@@H](Cc1c[nH]c2ccccc12)C(=O)N[C@@H](Cc1ccc(O)cc1)C(=O)NCC(=O)NCC(=O)NCC(=O)N[C@@H](CO)C(=O)N[C@@H](CCCCN)C(=O)N[C@@H](CCCCN)C(=O)N[C@@H](CCCCN)C(=O)N[C@@H](CCCCNC(=O)CCCC[C@@H]1SC[C@@H]2NC(=O)N[C@@H]21)C(N)=O)C(C)C` [AcM2pepBiotin, Ac-YEQDPWGVKWWYGGGSKKK], in the series with M2 macrophages (M2 versus M1 macrophages), the “binding selectivity to M2 macrophages over M1 macrophages” value is reported as “retained binding selectivity to M2 macrophages over M1 macrophages”. Further, in the series with M2 macrophages, the “binding activity” value is recorded as “slight, but not statistically significant, reduction in binding activity”. In series [1], the “N-terminal (exolytic) degradation in serum” value is reported as “resistant to N-terminal degradation”. Further, in series [1] (37° C., MALDI-TOF MS), the “overall serum stability (in words)” value is on record as “did not improve the overall serum stability”.
Take `CC(=O)N[C@@H](Cc1ccc(O)cc1)C(=O)N[C@@H](CCC(=O)O)C(=O)N[C@@H](CCC(N)=O)C(=O)N[C@@H](CC(=O)O)C(=O)N1C[C@H](O)C[C@H]1C(=O)N[C@@H](Cc1c[nH]c2ccccc12)C(=O)NCC(=O)N[C@H](C(=O)N[C@@H](CCCNC(=N)N)C(=O)N[C@@H](Cc1ccc(O)cc1)C(=O)N[C@@H](Cc1c[nH]c2ccccc12)C(=O)N[C@H](Cc1ccc(O)cc1)C(=O)NCC(=O)NCC(=O)NCC(=O)N[C@@H](CO)C(=O)N[C@H](CCCCN)C(=O)N[C@H](CCCCN)C(=O)N[C@H](CCCCN)C(=O)N[C@@H](CCCCNC(=O)CCCC[C@@H]1SC[C@@H]2NC(=O)N[C@@H]21)C(N)=O)C(C)C` [P5Hyp, Ac-YEQD(Hyp)WGVRYWyGGGSkkk] (Ac-YEQD[Hyp]WGVRYW[dY]GGGS[dK][dK][dK]K(Biotin)-NH2): the “binding activity” value in the series on M2 macrophages is “significantly ablated the binding activity”.
On the same count and under the same terms, the same measure for `CC(C)[C@@H]1NC(=O)CNC(=O)[C@H](Cc2c[nH]c3ccccc23)NC(=O)[C@@H]2CCCN2C(=O)[C@H](CC(=O)O)NC(=O)CNC(=O)[C@@H](N)CSSC[C@@H](C(=O)N[C@H](CCCCN)C(=O)N[C@H](CCCCN)C(=O)N[C@H](CCCCN)C(=O)N[C@@H](CCCCNC(=O)CCCC[C@@H]2SC[C@@H]3NC(=O)N[C@@H]32)C(N)=O)NC(=O)CNC(=O)[C@H](Cc2ccc(O)cc2)NC(=O)[C@H](Cc2c[nH]c3ccccc23)NC(=O)[C@H](Cc2ccc(O)cc2)NC(=O)[C@H](CCCNC(=N)N)NC1=O` [cRYWY, CGDPWGVRYWYGCkkk] (H-CGDPWGVRYWYGC[dK][dK][dK]K(Biotin)-NH2; disulfide 1-13): “significantly lower binding activity compared to cyclic M2pep(RY)Biotin”; for `CC(=O)N[C@@H](Cc1ccc(O)cc1)C(=O)N[C@@H](CCC(=O)O)C(=O)N[C@@H](CCC(N)=O)C(=O)N[C@@H](CC(=O)O)C(=O)N1CCC[C@H]1C(=O)N[C@@H](Cc1c[nH]c2ccccc12)C(=O)NCC(=O)N[C@H](C(=O)N[C@@H](CCCCN)C(=O)N[C@H](Cc1c[nH]c2ccccc12)C(=O)N[C@H](Cc1c[nH]c2ccccc12)C(=O)N[C@@H](Cc1ccc(O)cc1)C(=O)NCC(=O)NCC(=O)NCC(=O)N[C@@H](CO)C(=O)N[C@@H](CCCCN)C(=O)N[C@@H](CCCCN)C(=O)N[C@@H](CCCCN)C(=O)N[C@@H](CCCCNC(=O)CCCC[C@@H]1SC[C@@H]2NC(=O)N[C@@H]21)C(N)=O)C(C)C` [W(10,11)w, Ac-YEQDPWGVKwwYGGGSKKK]: “did not restore the binding activity”; for `Fc1c(F)c(F)c(-c2c(F)c(F)c(F)c(F)c2F)c(F)c1F` [DFBP, decafluorobiphenyl, reference compound]: “negligible binding to M2 macrophages”.
Same read-out and setting: to “Biotin-Ahx-GRGRGRG(C-DFBP)G [reference compound]” belongs “binds very weakly to macrophages even at 100 μM”; to `Cc1cn(C)nn1` [Triazole-cyclized M2pep(RY)Biotin], “bind less strongly”.
